Data on 22 compounds can be found in patent publication US12116358B2, “Substituted indoles and methods of use thereof” (EPIZYME, INC., priority 2018, dated 2024).

Test [1] concerns H3K36me3 in A549 cells. Description: In-Cell Western (ICW) assay of SETD2 inhibitors (A549 assay). The test is classed as cell-based, human. The conditions noted are these: A549 cells, read-out: SETD2 A549. The essentials: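 H3K36me3 In-Cell Western: cells exposed to compound for 3 days at 4,000 cells/well, 37° C. DRAQ5 (1:1000) marked cell number, with 700/800-channel Licor read-out.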

The target in test [2] is T1, SETD2(1434-1711) (Homo sapiens, UniProt Q9BYW2).
T1 construct: SETD2 (1434-1711) Assay; catalogue N/A
T1 sequence (Q9BYW2 1434-1711): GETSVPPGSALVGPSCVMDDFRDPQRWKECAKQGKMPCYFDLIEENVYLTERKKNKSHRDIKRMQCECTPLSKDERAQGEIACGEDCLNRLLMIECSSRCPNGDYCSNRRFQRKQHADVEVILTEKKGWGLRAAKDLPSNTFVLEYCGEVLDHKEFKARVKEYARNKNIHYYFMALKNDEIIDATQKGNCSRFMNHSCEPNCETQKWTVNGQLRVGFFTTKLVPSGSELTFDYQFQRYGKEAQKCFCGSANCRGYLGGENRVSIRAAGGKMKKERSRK
The experiment in a line: SETD2 (1434-1711) assay. It counts as biochemical. The conditions noted are these: read-out: SETD2 (1434-1711).

Like-named read-outs stand apart in the source and are kept apart here. Some results are limits rather than exact numbers.

As to `Cc1ccc(F)c2cc(C(=O)Nc3cccc(-c4ccc(Cn5ccnc5)cc4)c3)[nH]c12` [compound 228], the IC50 came out at 500 nM in test [1] and 80 nM in test [2].
For `Cc1cc(-c2cccnc2)cnc1C(NC(=O)c1cc2cccc(C)c2[nH]1)C1CC1` (centres unmarked) [compound 406], the IC50 was 2800 nM in test [1] and 300 nM in test [2].
With `Cc1ccc(F)c2cc(C(=O)N[C@@H]3CCC[C@H](N4CC[C@H](N(CCO)S(C)(=O)=O)C4)C3)[nH]c12` [compound 1061], the results for the IC50 in test [1] (Homo sapiens) and in test [2] were 300 nM and 20 nM, respectively.
With `Cc1cccnc1C(NC(=O)c1cc2c(CO)ccc(C)c2[nH]1)C1CC1` (centres unmarked) [compound 606], the values for the IC50 in test [1] and in test [2] were more than 25000 nM and more than 50000 nM, respectively.
For `CC(=O)N1CCN(C2CCCC(NC(=O)c3cc4c(F)ccc(C)c4[nH]3)C2)C2(CC2)C1` (centres unmarked) [compound 1137], in that order: more than 2000 nM and 2000 nM.
In the case of `Cc1ccc(F)c2cc(C(=O)Nc3cccc(N4CC5CCC(C4)O5)c3)[nH]c12` [compound 250], the IC50 in test [1] was determined as 600 nM; in test [2], 100 nM.
For `CNC(=O)CCCc1cccc(NC(=O)c2cc3c(F)ccc(C)c3[nH]2)c1` [compound 288], in that order: 1000 nM and 300 nM.
As for `Cc1ccc(F)c2cc(C(=O)Nc3cccc(N4CCN(C5CC5)CC4)c3)[nH]c12` [compound 236], the IC50 was determined as 600 nM in test [1] and 200 nM in test [2].
With `Cc1ccc(F)c2cc(C(=O)Nc3cc(F)cc(C4CCN5C(=O)CC[C@@H]5C4)c3)[nH]c12` (some centres unmarked) [compound 114], the IC50 in test [1] (Homo sapiens) is 200 nM; in test [2] it was 60 nM.
For `Cc1ccc(F)c2cc(C(=O)NC3CCCC(N4CCN5C(=O)CN(C)C(=O)C5C4)C3)[nH]c12` (centres unmarked) [compound 1104], the values for the IC50 in test [1] and in test [2] were 200 nM and 40 nM, respectively.
As for `Cc1ccc(F)c2cc(C(=O)Nc3cc(F)cc(N4CCC(N5CCN(CC(N)=O)CC5)C4)c3)[nH]c12` (centres unmarked) [compound 6], the IC50 in test [1] was 40 nM; in test [2] it was 6 nM.
Consider `CCc1cccnc1C(NC(=O)c1cc2cccc(C)c2[nH]1)C1CC1` (centres unmarked) [compound 521], for which the IC50 in test [1] (Homo sapiens) is 19900 nM; in test [2], 6900 nM.
With `Cc1ccc(F)c2cc(C(=O)N[C@@H]3CCC[C@@H](N4CCN(C)C(=O)C4C)C3)[nH]c12` (some centres unmarked) [compound 885], the IC50 is more than 2000 nM in test [1] (Homo sapiens) and 7600 nM in test [2].
For `CC(=O)N1CCN([C@@H]2C[C@H](NC(=O)c3cc4c(F)ccc(C)c4[nH]3)CN(C)C2)CC1` [compound 1006], the IC50 worked out at 1800 nM in test [1] (Homo sapiens) and 1000 nM in test [2].
As for `Cc1ccc(F)c2cc(C(=O)NC3CCCC(N4CCC(N(C)C(=O)CO)C4)C3)[nH]c12` (centres unmarked) [compound 996], the IC50 was more than 2000 nM in test [1] and 800 nM in test [2].
With `Cc1ccc(F)c2cc(C(=O)NC3CCCC(N4CCN5C(=O)NCC5C4)C3)[nH]c12` (centres unmarked) [compound 1050], the IC50 in test [1] is more than 2000 nM; in test [2], 1000 nM.
As to `Cc1ccc(F)c2cc(C(=O)NC3C(=O)NCCc4ccccc43)[nH]c12` (centres unmarked) [compound 327], the IC50 stood at 1600 nM in test [1] and 500 nM in test [2].
For the compound `Cc1ccc(F)c2cc(C(=O)Nc3cccc(N4CC5(CCNCC5)C4)c3)[nH]c12` [compound 184], the IC50 in test [1] (Homo sapiens) amounted to 400 nM; in test [2] it was 10 nM.
`Cc1ccc(F)c2cc(C(=O)Nc3cccc(C4(C#N)CCC(N(C)C)CC4)c3)[nH]c12` (centres unmarked) [compound 255]: the IC50 in test [1] (Homo sapiens) was determined as 600 nM; in test [2], 30 nM.
`COC1CN(C2CCN(c3cccc(NC(=O)c4cc5c(F)ccc(C)c5[nH]4)c3)CC2)C1` [compound 155]: the IC50 worked out at 300 nM in test [1] (Homo sapiens) and 50 nM in test [2].
As to `Cc1cc(CCN2CCN(C)CC2)cnc1C(CCc1ccccc1)NC(=O)c1cc2c(F)ccc(C)c2[nH]1` (centres unmarked) [compound 414], the IC50 in test [1] was 3200 nM; in test [2], 80 nM.
Turning to `Cc1cccc2cc(C(=O)NC3CCN(C(=O)CCCN)CC3C)[nH]c12` (centres unmarked) [compound 614], the values for the IC50 in test [1] and in test [2] were more than 25000 nM and 62700 nM, respectively.
